Patent publication US20160009686A1, “VEGFR3 INHIBITORS” (CANCER THERAPEUTICS CRC PTY LIMITED, priority 2012, published 2016)
Where two headings read alike, the source gives them in different places.

Key:
[1] = molecular target: VEGFR3 (Homo sapiens, UniProt P35916); assay: VEGFR3 Phospho ELISA Assay; assay type: cell-based; conditions: HMVEC-dLyAD cells, treated for 1 hour, VEGFC stimulated; phospho VEGFR3 relative to Total VEGFR3
Description: Adult human dermal lymphatic microvascular endothelial cells (HMVEC-dLyAD) (Cat# CC-2810, Lonza) were seeded into clear-bottom, TC treated 12 well plates (Cat #665180, Greiner Bio-One) in EGM-2MV (Cat# CC-3202, Lonza) at 180,000 cells/well (volume 1 mL), and the plates incubated at 37° C. and 5% CO2 for 6 hours.
96 well Maxisorp immuno plates (Cat #439454, Nunc) were coated with 100 μL of Total VEGFR3 capture antibody (Part #841888, Human Total VEGFR3/FLT4 ELISA Kit, Cat # DYC3491, R&D Systems), or Phospho VEGFR3 Capture antibody (Part #841885, Human Phospho VEGFR3/FLT4 ELISA Kit, Cat# DYC2724, R&D Systems). The plates were covered and incubated at room temperature overnight.
The coating antibody was flicked out and the plates washed three times with Wash Buffer (Phosphate buffered saline (137 mM NaCl, 2.7 nM KCl, 8.1 nM Na2HPO4, 1.5 mL KH2PO4, pH 7.2-7.4), 0.05% Tween 20). 300 μL of blocking buffer (5% v/v Tween 20, 5% w/v sucrose in PBS) was then added to wells and plate incubated for 2 hours at room temperature. Blocking solution is flicked out and plates washed three times and tapped dry.
Compound dilution series were prepared in EBM-2 (Cat # CC-3156, Lonza)+0.1% BSA (Cat# A8412, Sigma) with constant 0.1% DMSO concentration. 439 μL of sample or vehicle control was added to the cell monolayers. Cells are treated for 1 hour at 37° C. and 5% CO2. 250 ng/mL Recombinant human VEGFC (Cat #2179-VC, R & D Systems) added to wells and plates incubated for an additional 10 minutes at 37° C. and 5% CO2.
The media and compounds were removed and the cell monolayer washed once in Dulbecco's Phosphate Buffered Saline (Cat #21600-044, Invitrogen). 130 μL of Lysis buffer added to wells and cell lysate harvested and transferred to tubes and stored on ice. Complete lysis buffer was prepared by adding 10 μL Protease Inhibitor Cocktail (Cat # P8340, Sigma-Aldrich), 10 μL PMSF (Phenylmethanesulfonyl fluoride, Cat # P7626, Sigma-Aldrich, prepared as 500 mM DMSO stock) per 1 mL of Phosphosafe™ Extraction Reagent (Cat #71296, Merck).
The harvested samples were then diluted 1:2 in IC Diluent #18 (5% Tween 20/PBS) and 100 μL transferred to the Total and Phospho VEGFR3 coated, blocked and washed 96 well plates and incubated for 2 hours at room temperature. The plates were then washed three times in wash buffer as described above and tapped dry. For detection of Total VEGFR3 100 μL of Detection antibody (Total VEGFR3 Detection Antibody Part#841888 in Total VEGFR3 kit) diluted in IC Diluent #1 (1% w/v BSA (Cat # A7906, Sigma-Aldrich)/PBS) was added to wells and the plate incubated for 2 hours at room temperature. The plate was then washed three times in wash buffer and tapped dry. 100 μL of streptavidin-HPR diluted in IC diluent #1 Streptavidin-HRP, Part #890803 in Total VEGFR3 kit) was added to wells and incubated at room temperature for 20 minutes followed by washing as described above. 100 μL Substrate solution (3,3′,5,5′-Tetramethylbenzidine (TMB) Liquid Substrate System for ELISA, Cat # T0440, Sigma-Aldrich) was added and the plate incubated for 20 minutes in the dark at room temperature followed by the addition of 50 μL stop solution (2 M H2SO4).
Total VEGFR3 levels were quantified using a Multiskan Ascent plate reader and Ascent software fitted with 450 nm filter.
For detection of Phospho VEGFR3, 100 μL of Detection antibody (Anti-Phospho-Tyrosine-HRP Detection Antibody, Part #841403 in Phospho VEGFR3 kit) was diluted in IC Diluent #1 (1% w/v BSA/PBS), added to the wells and the plate incubated for 2 hours at room temperature. The plate was then washed three times in wash buffer as described above and tapped dry. 100 μL Substrate solution (3,3′,5,5′-Tetramethylbenzidine (TMB) Liquid Substrate System for ELISA, Cat # T0440, Sigma-Aldrich) was added and the plate incubated for 20 minutes in the dark at room temperature followed by the addition of 50 μL stop solution (2 M H2SO4).

[2] = molecular target: VEGFR3 cytoplasmic domain (Homo sapiens, UniProt P35916); assay: VEGFR3 Biochemical Assay (AlphaScreen); conditions: GST-fusion enzyme, 500 μM ATP, 90 minutes at 30 degree Celsius (modified form in some cases: Hexa-His-fusion enzyme, 1 μM ATP)
VEGFR3 cytoplasmic domain, sequence (P35916 798-1298 isoform P35916-1): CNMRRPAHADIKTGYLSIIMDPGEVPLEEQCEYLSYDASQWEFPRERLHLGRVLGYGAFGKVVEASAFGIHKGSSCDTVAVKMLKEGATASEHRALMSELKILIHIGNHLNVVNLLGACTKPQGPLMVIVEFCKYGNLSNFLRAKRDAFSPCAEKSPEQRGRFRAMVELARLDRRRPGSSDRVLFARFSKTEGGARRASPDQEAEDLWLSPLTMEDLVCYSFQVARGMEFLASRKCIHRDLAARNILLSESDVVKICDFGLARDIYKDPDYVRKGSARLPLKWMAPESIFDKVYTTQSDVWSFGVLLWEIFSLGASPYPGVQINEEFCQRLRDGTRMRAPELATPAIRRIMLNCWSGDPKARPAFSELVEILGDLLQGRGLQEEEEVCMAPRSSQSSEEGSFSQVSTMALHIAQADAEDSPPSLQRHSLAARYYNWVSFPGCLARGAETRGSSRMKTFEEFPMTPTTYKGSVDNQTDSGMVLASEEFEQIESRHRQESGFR

VEGFR3, sequence (P35916 25-1363): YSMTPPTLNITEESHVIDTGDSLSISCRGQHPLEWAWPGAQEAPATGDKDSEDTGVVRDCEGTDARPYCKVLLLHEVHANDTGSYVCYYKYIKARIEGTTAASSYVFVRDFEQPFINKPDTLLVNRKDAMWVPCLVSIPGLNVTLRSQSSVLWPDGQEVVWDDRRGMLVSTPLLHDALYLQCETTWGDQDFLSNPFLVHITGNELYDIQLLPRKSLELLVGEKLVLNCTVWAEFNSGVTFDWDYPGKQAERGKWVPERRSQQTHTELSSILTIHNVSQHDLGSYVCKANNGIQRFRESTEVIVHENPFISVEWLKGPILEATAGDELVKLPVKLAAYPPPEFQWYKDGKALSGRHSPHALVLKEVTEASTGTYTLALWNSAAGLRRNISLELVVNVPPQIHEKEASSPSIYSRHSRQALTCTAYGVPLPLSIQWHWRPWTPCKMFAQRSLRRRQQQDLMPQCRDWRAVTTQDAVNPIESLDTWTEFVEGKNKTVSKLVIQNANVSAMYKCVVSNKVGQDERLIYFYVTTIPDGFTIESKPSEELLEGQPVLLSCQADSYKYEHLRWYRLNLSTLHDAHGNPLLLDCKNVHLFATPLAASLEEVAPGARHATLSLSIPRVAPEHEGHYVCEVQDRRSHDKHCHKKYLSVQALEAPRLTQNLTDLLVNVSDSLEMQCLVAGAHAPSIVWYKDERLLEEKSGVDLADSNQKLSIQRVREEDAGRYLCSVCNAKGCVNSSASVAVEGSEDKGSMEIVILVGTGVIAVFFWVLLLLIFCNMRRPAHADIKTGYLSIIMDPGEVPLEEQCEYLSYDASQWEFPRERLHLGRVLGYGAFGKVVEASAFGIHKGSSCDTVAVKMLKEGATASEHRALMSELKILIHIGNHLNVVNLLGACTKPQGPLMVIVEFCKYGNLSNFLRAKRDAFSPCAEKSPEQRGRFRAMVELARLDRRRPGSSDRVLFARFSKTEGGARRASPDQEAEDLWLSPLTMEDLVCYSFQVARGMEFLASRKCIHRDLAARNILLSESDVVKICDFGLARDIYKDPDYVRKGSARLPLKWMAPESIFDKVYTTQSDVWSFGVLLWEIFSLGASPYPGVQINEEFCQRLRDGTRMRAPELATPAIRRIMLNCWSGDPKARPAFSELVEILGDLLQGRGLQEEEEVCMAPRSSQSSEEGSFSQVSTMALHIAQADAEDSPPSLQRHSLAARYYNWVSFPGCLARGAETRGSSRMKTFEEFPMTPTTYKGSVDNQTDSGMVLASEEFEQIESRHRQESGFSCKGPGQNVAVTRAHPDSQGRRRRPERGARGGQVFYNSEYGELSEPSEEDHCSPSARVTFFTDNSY

Row | Compound | IC50 [1] [nM] | IC50 ([2]; read-out: IC50) [nM] | IC50 ([2]; IC50 (nM)) [nM]
1 | Cn1cc(Nc2ncc(Cl)c(CCc3ccccc3C3(C(N)=O)CC3)n2)cn1 [Compound 13, 1-(2-(2-(5-Chloro-2-((1-methyl-1H-pyrazol-4-yl)amino)pyrimidin-4-yl)ethyl)phenyl)cyclopropanecarboxamide] | 9 | 4 | 
2 | Cc1cnc(Nc2cnn(C3CCN(C)CC3)c2)nc1CCc1ccccc1C1(C(N)=O)CC1 [Compound 48, 1-(2-(2-(5-Methyl-2-((1-(1-methylpiperidin-4-yl)-1H-pyrazol-4-yl)amino)pyrimidin-4-yl)ethyl)phenyl)cyclopropanecarboxamide] |  | 12 | 
3 | CC(C(N)=O)c1ccccc1CCc1nc(Nc2ccc(C3CCNCC3)nc2)ncc1C(F)(F)F (stereo not shown) [Compound 62, 2-(2-(2-(2-((6-(Piperidin-4-yl)pyridin-3-yl)amino)-5-(trifluoromethyl)pyrimidin-4-yl)ethyl)phenyl)propanamide] |  | 492 | 
4 | CC(C(N)=O)c1ccccc1CCc1nc(Nc2cnn(C3CCNCC3)c2)ncc1Cl (stereo not shown) [Compound 43, 2-(2-(2-(5-Chloro-2-(1-(piperidin-4-yl)-1H-pyrazol-4-ylamino)pyrimidin-4-yl)ethyl)phenyl) propanamide] |  | 12 | 
5 | Cc1cnc(Nc2cnn(C)c2)nc1CCc1ccccc1C(C)C(N)=O (single isomer, unassigned) [Compound 51-2A, 2-(2-(2-(5-methyl-2-((1-methyl-1H-pyrazol-4-yl)amino)pyrimidin-4-yl)ethyl)phenyl)propanamide] |  | 41 | 
6 | Cc1cnc(Nc2cnn(C)c2)nc1CCc1ccccc1C(C)C(N)=O (stereo not shown) [Compound 51, 2-(2-(2-(5-Methyl-2-((1-methyl-1H-pyrazol-4-yl)amino)pyrimidin-4-yl)ethyl)phenyl)propanamide] | 526 | 15 | 
7 | Cc1cnc(Nc2cnn(C)c2)nc1CCc1ccccc1C(C)C(N)=O (single isomer, unassigned) [Compound 51-1A, 2-(2-(2-(5-methyl-2-((1-methyl-1H-pyrazol-4-yl)amino)pyrimidin-4-yl)ethyl)phenyl)propanamide] |  | 25 | 
8 | NC(=O)C1(c2ccccc2CCc2nc(Nc3ccc(C4CCNCC4)cc3)ncc2Cl)CC1 [Compound 7, 1-(2-(2-(5-chloro-2-((4-(piperidin-4-yl)phenyl)amino)pyrimidin-4-yl)ethyl)phenyl)cyclopropanecarboxamide] | 38 | 10 | 
9 | CCC(C(N)=O)c1ccccc1CCc1nc(Nc2ccc(C3CCNCC3)cc2)ncc1C(F)(F)F (single isomer, unassigned) [Compound 1-2A, 2-(2-(2-(2-((4-(Piperidin-4-yl)phenyl)amino)-5-(trifluoromethyl)pyrimidin-4-yl)ethyl)phenyl)butanamide] | 315 | 75 | 
10 | CN1CCC(n2cc(Nc3ncc(C(F)(F)F)c(CCc4ccccc4C4(C(N)=O)CC4)n3)cn2)CC1 [Compound 67, 1-(2-(2-(2-((1-(1-Methylpiperidin-4-yl)-1H-pyrazol-4-yl)amino)-5-(trifluoromethyl)pyrimidin-4-yl)ethyl)phenyl)cyclopropanecarboxamide] |  | 7 | 
11 | CC(C(N)=O)c1ccccc1CCc1nc(Nc2ccnnc2)ncc1Cl (stereo not shown) [Compound 42, 2-(2-(2-(5-Chloro-2-(pyridazin-4-ylamino)pyrimidin-4-yl)ethyl)phenyl)propanamide] |  | 154 | 
12 | COc1ccc(Nc2ncc(C(F)(F)F)c(CCc3ccccc3C(C)C(N)=O)n2)cn1 (stereo not shown) [Compound 61, 2-(2-(2-(2-((6-Methoxypyridin-3-yl)amino)-5-(trifluoromethyl)pyrimidin-4-yl)ethyl)phenyl) propanamide] |  | 118 | 
13 | Cc1cnc(Nc2ccc(C3CCN(C)CC3)nc2)nc1CCc1ccccc1C1(C(N)=O)CC1 [Compound 49, 1-(2-(2-(5-Methyl-2-((6-(1-methylpiperidin-4-yl)pyridin-3-yl)amino)pyrimidin-4-yl)ethyl)phenyl)cyclopropanecarboxamide] |  | 23 | 
14 | Cc1cnc(Nc2cn[nH]c2)nc1CCc1ccccc1C1(C(N)=O)CC1 [Compound 46, 1-(2-(2-(2-((1H-Pyrazol-4-yl)amino)-5-methylpyrimidin-4-yl)ethyl)phenyl)cyclopropanecarboxamide] |  | 13 | 
15 | CC(NC(=O)OC(C)(C)C)c1ccc(Nc2ncc(Cl)c(CCc3ccccc3C3(C(N)=O)CC3)n2)cc1 (stereo not shown) [Compound 24, tert-Butyl (1-(4-((4-(2-(1-carbamoylcyclopropyl)phenethyl)-5-chloropyrimidin-2-yl)amino)phenyl)ethyl)carbamate] | 25 | 2 | 
16 | NC(=O)C1(c2ccccc2CCc2nc(Nc3ccccc3)ncc2Cl)CC1 [Compound 23, 1-(2-(2-(5-Chloro-2-(phenylamino)pyrimidin-4-yl)ethyl)phenyl)cyclopropanecarboxamide] |  |  | 11
17 | COCCn1cc(Nc2ncc(Cl)c(CCc3ccccc3C3(C(N)=O)CC3)n2)cn1 [Compound 77] |  | 3 | 

Row | Compound | IC50 [1] [nM] | IC50 ([2]; read-out: IC50) [nM] | IC50 ([2]; IC50 (nM)) [nM]
18 | NC(=O)C1(c2ccccc2CCc2nc(Nc3ccc(C4CCNCC4)cc3)ncc2C(F)(F)F)CCC1 [Compound 52, 1-(2-(2-(2-((4-(Piperidin-4-yl)phenyl)amino)-5-(trifluoromethyl)pyrimidin-4-yl)ethyl)phenyl)cyclobutanecarboxamide] |  | 23 | 
19 | NC(=O)C1(c2ccccc2CCc2nc(Nc3cnn(C4CCNCC4)c3)ncc2C(F)(F)F)CC1 [Compound 66, 1-(2-(2-(2-((1-(Piperidin-4-yl)-1H-pyrazol-4-yl)amino)-5-(trifluoromethyl)pyrimidin-4-yl)ethyl)phenyl)cyclopropanecarboxamide] |  | 7 | 
20 | CC(C(N)=O)c1ccccc1CCc1nc(Nc2cccnc2)ncc1Cl (stereo not shown) [Compound 39, 2-(2-(2-(5-Chloro-2-(pyridin-3-ylamino)pyrimidin-4-yl)ethyl)phenyl) propanamide] |  | 44 | 
21 | CC(N)c1ccc(Nc2ncc(C(F)(F)F)c(CCc3ccccc3C3(C(N)=O)CC3)n2)cc1 (stereo not shown) [Compound 70A, 1-(2-(2-(2-(4-(1-Aminoethyl)phenylamino)-5-(trifluoromethyl)pyrimidin-4-yl)ethyl)phenyl)cyclopropanecarboxamide] |  | 22 | 
22 | NC(=O)C1(c2ccccc2CCc2nc(Nc3cnn(CC(F)(F)F)c3)ncc2Cl)CC1 [Compound 29, 1-(2-(2-(5-Chloro-2-((1-(2,2,2-trifluoroethyl)-1H-pyrazol-4-yl)amino)pyrimidin-4-yl)ethyl)phenyl)cyclopropanecarboxamide] |  | 8 | 
23 | CCC(C(N)=O)c1ccccc1CCc1nc(Nc2ccc(C3CCNCC3)cc2)ncc1C(F)(F)F (single isomer, unassigned) [Compound 1-1A, 2-(2-(2-(2-((4-(Piperidin-4-yl)phenyl)amino)-5-(trifluoromethyl)pyrimidin-4-yl)ethyl)phenyl)butanamide] | 329 | 103 | 
24 | CC(C)n1cc(Nc2ncc(Cl)c(CCc3ccccc3C3(C(N)=O)CC3)n2)cn1 [Compound 30, 1-(2-(2-(5-Chloro-2-((1-isopropyl-1H-pyrazol-4-yl)amino)pyrimidin-4-yl)ethyl)phenyl)cyclopropanecarboxamide] |  | 4 | 
25 | CC(C(N)=O)c1ccccc1CCc1nc(Nc2cncnc2)ncc1Cl (stereo not shown) [Compound 40, 2-(2-(2-(5-Chloro-2-(pyrimidin-5-ylamino)pyrimidin-4-yl)ethyl)phenyl) propanamide] |  | 160 | 
26 | CC(=O)c1ccc(Nc2ncc(Cl)c(CCc3ccccc3C3(C(N)=O)CC3)n2)cn1 [Compound 32, 1-(2-(2-(2-((6-Acetylpyridin-3-yl)amino)-5-chloropyrimidin-4-yl)ethyl)phenyl)cyclopropanecarboxamide] |  | 44 | 
27 | NC(=O)C1(c2ccccc2CCc2nc(Nc3cnn(C(F)F)c3)ncc2Cl)CC1 [Compound 34, 1-(2-(2-(5-Chloro-2-((1-(difluoromethyl)-1H-pyrazol-4-yl)amino)pyrimidin-4-yl)ethyl)phenyl)cyclopropanecarboxamide] |  | 7 | 
28 | CC(N)c1ccc(Nc2ncc(Cl)c(CCc3ccccc3C3(C(N)=O)CC3)n2)cn1 (stereo not shown) [Compound 33, 1-(2-(2-(2-((6-(1-Aminoethyl)pyridin-3-yl)amino)-5-chloropyrimidin-4-yl)ethyl)phenyl)cyclopropanecarboxamide] |  | 60 | 
29 | NC(=O)C1(c2ccccc2CCc2nc(Nc3ccnnc3)ncc2Cl)CC1 [Compound 22, 1-(2-(2-(5-Chloro-2-(pyridazin-4-ylamino)pyrimidin-4-yl)ethyl)phenyl)cyclopropanecarboxamide] |  | 20 | 
30 | CC(C(N)=O)c1ccccc1CCc1nc(Nc2cn[nH]c2)ncc1C(F)(F)F (stereo not shown) [Compound 54, 2-(2-(2-(2-((1H-Pyrazol-4-yl)amino)-5-(trifluoromethyl)pyrimidin-4-yl)ethyl)phenyl)propanamide] |  | 17 | 
31 | COc1ccc(Nc2ncc(C(F)(F)F)c(CCc3ccccc3C3(C(N)=O)CC3)n2)cn1 [Compound 64, 1-(2-(2-(2-((6-Methoxypyridin-3-yl)amino)-5-(trifluoromethyl)pyrimidin-4-yl)ethyl)phenyl)cyclopropanecarboxamide] | 394 | 8 | 
32 | CC(C(N)=O)c1ccccc1CCc1nc(Nc2ccc(C3CCN(C)CC3)nc2)ncc1Cl (stereo not shown) [Compound 38, 2-(2-(2-(5-Chloro-2-((6-(1-methylpiperidin-4-yl)pyridin-3-yl)amino)pyrimidin-4-yl)ethyl)phenyl)propanamide] |  | 32 | 
33 | NC(=O)C1(c2cccc(CCc3nc(Nc4cnn(C5CCNCC5)c4)ncc3C(F)(F)F)c2)CC1 [Compound 53, 1-(3-(2-(2-((1-(Piperidin-4-yl)-1H-pyrazol-4-yl)amino)-5-(trifluoromethyl)pyrimidin-4-yl)ethyl)phenyl)cyclopropanecarboxamide] |  | 228 | 
